Experimental data taken from US7728146B2, “Enzyme inhibitors” (Probiodrug AG, priority 2006, dated 2010).
Counter-ions that a name gives are not always drawn.

Columns and labels:
DPII = DPII (Homo sapiens, UniProt Q9UHL4); experiment: DPII assay; type: biochemical; conditions: for Selectivity DPII(IC50)/DPIV(Ki): ratio IC50 DPII / Ki DP IV; for IC50: sodium acetate buffer pH 5.5, Gly-Pro-AMC 1 mM
Procedure: (§1) Determination of IC50 values for DPII and DP9 are done similarly as described for DP IV.
For DPII instead of the HEPES buffer a 0.2 M sodium acetate buffer pH 5.5 is used. As substrate Gly-Pro-AMC is used in a final concentration of 1 mM.

DP IV [1] = target: T1, DP IV (Homo sapiens, UniProt P27487); experiment: Ki and inhibition type, DP IV; type: biochemical; conditions: compounds obtained by preparative synthesis
T1 sequence (P27487 whole entry): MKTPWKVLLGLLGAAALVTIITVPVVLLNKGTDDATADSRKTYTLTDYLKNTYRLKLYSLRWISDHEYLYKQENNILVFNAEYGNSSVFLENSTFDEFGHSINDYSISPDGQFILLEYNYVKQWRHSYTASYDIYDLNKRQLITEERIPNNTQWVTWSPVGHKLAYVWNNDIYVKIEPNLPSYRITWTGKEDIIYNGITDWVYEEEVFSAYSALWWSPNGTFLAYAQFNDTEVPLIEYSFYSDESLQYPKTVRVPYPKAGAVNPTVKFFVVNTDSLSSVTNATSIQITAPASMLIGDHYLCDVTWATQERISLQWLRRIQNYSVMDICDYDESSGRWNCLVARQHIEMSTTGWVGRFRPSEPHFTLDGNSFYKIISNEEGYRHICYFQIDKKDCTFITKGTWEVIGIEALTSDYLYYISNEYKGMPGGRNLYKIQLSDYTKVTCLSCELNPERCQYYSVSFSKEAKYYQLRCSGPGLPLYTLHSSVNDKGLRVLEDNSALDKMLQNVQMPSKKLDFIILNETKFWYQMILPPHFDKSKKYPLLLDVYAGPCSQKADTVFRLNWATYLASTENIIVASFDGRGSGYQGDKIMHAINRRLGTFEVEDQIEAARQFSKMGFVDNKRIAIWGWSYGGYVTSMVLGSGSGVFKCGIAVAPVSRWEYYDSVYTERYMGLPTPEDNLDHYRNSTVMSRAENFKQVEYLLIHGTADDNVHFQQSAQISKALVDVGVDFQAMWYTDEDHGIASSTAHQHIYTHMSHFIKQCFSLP
Procedure: Measurement of DP IV activities for Ki determination is carried out as described for IC50. For Ki determination samples were analysed in triplicates. 7 serial dilutions of the inhibitor (range calculated from the IC50 determination) in water are analyzed with 4 serial dilutions of the substrate.
Data are analysed by non-linear regression to the inhibitor equations using Graphit software. Ki-value and inhibition type are determined using the inhibitor equation (competitive, partiell competitive, non-competitive) which gives the best fitting results. […]

Caco-2 transport assay = type: in vitro ADME, human; conditions: human, Caco-2, pH 7.5; for Papp A→B: apical to basal; for Papp B→A: basal to apical
Procedure: (§2) The concentration of compounds in the Caco experiments may be determined from their potency to inhibit recombinant human DP IV.
(§3) Reaction is started by addition of 20 μl rhDP IV and release of pNA was monitored at 405 nm. Samples are analyzed in several dilutions (undiluted, 1:10, 1:[…]). Dilutions are done in the Caco assay buffer. Activity measured with Caco-assay buffer alone is set to 100% and inhibitor concentration is calculated from the dilutions resulting in 20 to 80% inhibition according to the equation for competitive inhibition.
(§4) [formula] • I=inhibitor concentration • v0=velocity of the reaction without inhibitor (Caco assay buffer alone) • vi=velocity of the reaction with inhibitor sample • Ki=Ki-value of the compound • DF=dilution factor of the sample Transport Assay
(§5) The human colon adenocarcinome cell line Caco-2 are grown in 6- or 24-transwell microplates (Costar) for 21 days with MEM-alpha containing 10% FBS and 0.5% Gentamycin (Invitrogen). After 21 days of cultivation integrity of the cell layer are assessed by measurement of the transepitelial electrical resistance.
(§6) Transport measurements are carried out in triplicates at a pH of 7.5. For each compound and direction (apical to basal (a-b), basal to apical (b-a)) two separate experiments are done. Samples are collected from the donor and acceptor compartments at the beginning of the experiment and after 60 min (for 6-well plates, Donor at 0 and 120 min, Acceptor at 15, 30, 60 and 120 min).
(§7) Samples are analyzed in several dilutions for their ability to inhibit human recombinant DP IV and compound concentrations may be calculated using the prior determined Ki-value (see above).
(§8) The permeability coefficient Papp is calculated according to the following equation:
(§9) [formula] • VA=Volume of the acceptor compartment • A=Area of the transwell membrane • t=sampling time • cAt=concentration in the acceptor compartment at sampling time • CDO=concentration in the donor compartment at t=0
(§10) Papp-values>1e-5 cm/s are assessed as good permeable, value<1e-6 cm/s as not permeable. Papp-values in between as medium permeable. Compounds where no significant difference were found between a-b and b-a transport are assessed to be passive transported.

Caco-2 monolayer = experiment: Caco-2 transport assay; type: in vitro ADME, human; conditions: assessment of permeability and transport type
Procedure: as §2, §3, §4, §5, §6, §7, §8, §9, §10

[2] = test system: liver cell carcinoma cell line Hep-G2; experiment: Cytotoxicity screening and LD50 determination on Hep-G2 (LDH, CytoTox-One); type: cell-based; conditions: 100 μM; for Cytotox 100 μM (%) HEPG2 / Viability 100 μM (%) HEP-G2: 24 h; for Cytotox 100 μM (%) HEPG2: LDH activity in cell culture media, lysed untreated cells = 100%; for Viability 100 μM (%) HEP-G2: LDH of lysed cells, untreated control = 100%
Procedure: Cytotoxicity of the compounds may be screened using the liver cell carcinoma cell line Hep-G2.
After 24 h of cultivation in a 96 well plate (50 000 cells/well) compounds (dissolved in DMSO) are added and cytotoxicity and vitality of the cells are analysed after another 24 h of cultivation using the CytoTox-One Homogenoeous membrane toxicity assay (Promega).
Three concentrations (100 μM, 2 μM, 40 nM) of each compound are analysed in triplicates. The final DMSO concentration was 1%.
For cytotoxicity the LDH activity in the cell culture media after 24 h of incubation are analysed. The untreated control is set to 0% cytotoxicity. For the 100% value LDH activity of lysed untreated cells are analysed.
For viability cell culture media are removed from the cells and all cells are lysed using the lysis buffer. LDH activity is determined and untreated control is set to 100% viability.
For determination of LD50 the liver carcinoma cell line HEP-G2 and the neuroblastoma cell line SY5Y may be used. The effect of 8 serial dilutions of the compounds (highest concentration 1 mM) is investigated as described above.
The cytotoxicity of certain example compounds (in each case prepared by preparative synthesis) was screened using Hep-G2 cells. Compounds were tested in concentrations of 100 μM, 2 μM and 40 nM.

[3] = target: dipeptidyl peptidase (DP IV) (UniProt P27487); experiment: Determination of IC50 against DP IV (hydrolysis of Gly-Pro-pNA); type: biochemical, porcine kidney or recombinant human; conditions: compounds obtained by preparative synthesis
Procedure: Determination of IC50 Against DP IV
Substances are screened for inhibition of dipeptidyl peptidase (DP IV) by their ability to inhibit the hydrolysis of the DP IV specific substrate Glycyl-Prolyl-4-Nitroanilide (Gly-Pro-pNA). All compounds are diluted in DMSO and IC50 will be determined with 11 serial dilutions (1:2) starting with an final concentration of 100 μM. The final DMSO concentration in the assay is 5% (v/v). The method was automated using a Tecan Genesis Freedom liquid handler and a Genius Pro (Tecan) microplate reader.
A stock solution of 0.102 M HEPES is prepared. Ionic strength (I=0.32) is adjusted by KCl and pH (pH 7.6) by KOH.
2.16 mM solution of Gly-Pro-pNA in deionized water is prepared.
All samples are dissolved in DMSO preparing a 10 mM stock solution.
DP IV from porcine kidney (pDP IV) or recombinant human DP IV (rhDP IV) is diluted in HEPES buffer to a final activity of approximately 40-50 μU*ml^−1. The DP IV is stored in a cooling rack (4° C.) on the liquid handler.
The assay may becarried out at room temperature using Freedom liquid handler connected with a Genios Pro microplate reader. Each sample is measured in duplicate. Each sample stock solution is prediluted with DMSO in a ratio of 1:5 in a polypropylen 96-well plate. From this predilution 10 serial (1:2) dilutions in DMSO are prepared. 13.5 μl of the 11 DMSO dilutions and DMSO alone are transferred to the measurement microplate (duplicates) and 86.5 μl water, 100 μl HEPES buffer and 50 μl substrate solution are added to each well. The enzymatic reaction is started by addition of 20 μl enzyme solution to each well, and then the microplate is immediately transferred to the microplate reader.
After short mixing (20 s) the release of 4-Nitroanilin (pNA) is monitored at 405 nm for 30 cycles (approx. 18 min).
Post assay calculations are done by the Magellan (Tecan) and Graphit Software. The linear slopes are calculated for each well and averaged for the duplicates. The residue activities are calculated in relation to a sample containing only solvent instead of inhibitor and expressed in %. Residue activities are plotted against the log of inhibitor concentrations and IC50 is calculated by an 4-parameter fitting ranging from 0 to 100%.

DP9 = DP9 (Homo sapiens, UniProt Q86TI2); experiment: DP9 assay; type: biochemical; conditions: for Selectivity DP9(IC50)/DPIV(Ki): ratio IC50 DP9 / Ki DP IV
Sequence of DP9 (Q86TI2 whole entry, species assumed): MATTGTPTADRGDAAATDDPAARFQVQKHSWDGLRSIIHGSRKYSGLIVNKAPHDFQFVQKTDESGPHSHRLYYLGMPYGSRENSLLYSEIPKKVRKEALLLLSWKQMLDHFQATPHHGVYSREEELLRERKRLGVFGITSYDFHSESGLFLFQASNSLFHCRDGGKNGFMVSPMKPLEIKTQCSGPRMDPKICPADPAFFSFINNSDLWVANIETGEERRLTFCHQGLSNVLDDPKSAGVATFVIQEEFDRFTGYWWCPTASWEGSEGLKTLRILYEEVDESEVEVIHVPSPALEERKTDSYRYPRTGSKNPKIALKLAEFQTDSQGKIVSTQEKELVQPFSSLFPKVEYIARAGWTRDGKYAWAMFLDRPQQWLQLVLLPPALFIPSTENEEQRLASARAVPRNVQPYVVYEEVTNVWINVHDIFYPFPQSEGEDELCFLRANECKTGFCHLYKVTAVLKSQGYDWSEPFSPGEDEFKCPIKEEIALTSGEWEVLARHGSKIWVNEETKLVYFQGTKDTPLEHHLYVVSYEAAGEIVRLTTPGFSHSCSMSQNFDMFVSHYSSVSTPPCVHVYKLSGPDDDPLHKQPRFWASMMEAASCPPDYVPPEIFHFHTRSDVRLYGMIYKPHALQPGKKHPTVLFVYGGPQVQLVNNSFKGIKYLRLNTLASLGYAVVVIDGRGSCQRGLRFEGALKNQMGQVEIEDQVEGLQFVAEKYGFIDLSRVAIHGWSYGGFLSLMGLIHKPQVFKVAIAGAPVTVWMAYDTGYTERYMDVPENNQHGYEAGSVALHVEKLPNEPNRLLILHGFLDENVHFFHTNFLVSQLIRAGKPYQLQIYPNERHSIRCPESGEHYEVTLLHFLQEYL
Procedure: as §1
For DP9 Gly Pro-AMC is used as substrate in a final concentration of 0.25 mM.

DP IV [4] = target: T1, DP IV; experiment: DP IV inhibition IC50, parallel-synthesis compounds tested directly following synthesis (without purification); type: biochemical; set-up: IC50 DP4; other: tested directly following parallel synthesis, without purification; compounds of formula (Ib) from parallel synthesis, tested directly following synthesis; conditions: DP IV inhibition; compounds of formula (Ib) from parallel synthesis, tested directly following synthesis (without purification); read-out: IC50
Procedure, shortened: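 IC50 came from a 4-parameter fit of residual activity (linear 405 nm slopes for pNA release over ~18 min, relative to solvent-only wells). Gly-Pro-pNA was the substrate, cleaved by porcine kidney or recombinant human DP IV at room temperature in HEPES with 5% DMSO; duplicate 1:2 series started at 100 μM final.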

male Sprague Dawley rats = experiment: Circadian courses of activity, feeding and drinking behaviour; body weight, food and fluid consumption during chronic administration; type: in vivo, rat; conditions: vs vehicle
Procedure: Example 130b as hydrochloride salt was dissolved in tap water in concentrations of 0.03, 0.1 and 0.3 mg/ml. Assuming a daily fluid intake of approx. 30 ml per animal (animal's weight: approx. 300 g), these concentrations should result in doses of approx. 3, 10 and 30 mg/kg/day. The solutions were prepared freshly every day. During chronic administration, solution offer was limited to 40 ml per day for each animal.
Imipramine was dissolved 0.5% Natrosol and administered once daily i.p. for 8 days (test group TG 11, see below) with a dose of 15 mg/kg/day in a volume of 1 ml/kg.
216 male Sprague Dawley rats. The animals were 6 weeks old at the start of the study. They were housed in groups of 4 animals (“acute animals”) or in single cages (“chronic animals”) at 12 h/12 h light/dark (start of the light phase at 2 a.m.), 20° C., 60% rH. Animals were provided by Elevage Janvier, France.
During the 7 days lasting period of chronic compound administration, animals were kept singly. On the first day they were kept in single Macrolon home cages. On the next day they were transferred to activity monitoring cages and kept there for 3 days. For the following 3 days they returned to their home cages (single housing).
Animals received the test compound chronically via the drinking fluid. The reference compound Imipramine was given i.p. (one administration per day, one hour before the respective tests). Fluid supply was restricted to 40 ml per day for all test groups. On the first day of chronic test compound exposure, animals were kept singly in standard single home cages to enable an individual assessment of test compound intake. On the second day, animals were transferred to infrared monitoring cages for 3 days. Food and fluid offer were the same as in the home cage. Measuring rearing activity near fluid bottles and food grid enabled an assessment of the time structure of food and water (compound) consumption. Behavioural observation started one hour before the beginning of the dark phase (2 p.m.). After 22 hours, body weight, food and fluid consumption were measured. 2 hours later, the next recording started.
Raw data were provided as computer files accompanied by written protocol sheets. As the animals were still adapting to the environment and administration the time courses of the following parameters were calculated only for the last day of registration: • Food and fluid intake (time %) • Number of feeding and […] bouts • Meal pattern parameters reflecting e.g. the duration and recurrence of feeding and drinking bouts • Total distance travelled (cm/min) • Small movements (cm/min) • Distance travelled with rapid locomotion (cm/min) • Distance travelled with slow locomotion (cm/min) • Immobility (time %) • Use of available space (%) • Locomotor stereotypies (score, first hour of the dark phase only) • Rearing (time %) • Number of rearing acts (N) Feeding and Drinking Bouts and Bout-Related Analysis:
On the basis of high-resolution infrared beam recordings, feeding and drinking is identified by means of beam interruption in the upper frame near to the positions of food or water. Feeding or drinking acts are then defined as temporally contingent behavioural pattern separated from each other by intervals not longer than 0.5 seconds. Normally, several acts form a feeding or drinking bout. The intervals within a bout are definitely shorter than between subsequent bouts. A threshold interval can be set to distinguish between intra-bout and inter-bout intervals.
Stereotyped locomotion was assessed by means of statistical comparisons between the observed locomotor sequences (as described by the movement from one of the 4×4 subsquares to another) and a “random walk”. The comparison is performed at 5 different levels:
The coefficient of locomotor stereotypies (SC, in %) at each level has a value of SC=0 when there are no regularities within the movement pattern (random walk). […]

[5] = circadian registration, Imipramine 15 mg/kg/day i.p., Example 130b approx. 3, 10, 30 mg/kg/day
[6] = Imipramine 15 mg/kg/day i.p., Example 130b hydrochloride approx. 3, 10, 30 mg/kg/day via drinking fluid

Row | Structure (SMILES) | Selectivity DPII(IC50)/DPIV(Ki) (DPII) | IC50 (DPII) | Ki (DP IV [1]) | Papp A→B (Caco-2 transport assay) | Papp B→A (Caco-2 transport assay) | Transport (Caco-2 monolayer) | Cytotox 100 μM (%) HEPG2 [2] | Viability 100 μM (%) HEP-G2 [2] | Observed cytotox ([2]; Hep-G2, observation of the cells) | IC50 [3] | IC50 (DP9; Gly Pro-AMC 0.25 mM) | Selectivity DP9(IC50)/DPIV(Ki) (DP9) | IC50 (DP IV [4]) | time immobile (male Sprague Dawley rats; circadian registration, Imipramine 15 mg/kg/day i.p.) | horizontal and vertical (locomotor) activity (male Sprague Dawley rats; [5]) | time accessing food and water (fluid) (male Sprague Dawley rats; [5]) | locomotor stereotypies (stereotypy index) (male Sprague Dawley rats; first hour of the dark phase, Imipramine: level 2, 3 and 4 stereotypies, Example 130b: usage of available space or stereotypy index) | body weight (gain) (male Sprague Dawley rats; [6]) | fluid intake (male Sprague Dawley rats; [6]) | food intake (male Sprague Dawley rats; [6])
1 | NCc1c(-c2ccc(Cl)cc2Cl)ncn1C(CO)c1ccccc1 (stereo not drawn) [Example 126b, 2-[5-aminomethyl-4-(2,4-dichloro-phenyl)-imidazol-1-yl]-2-phenyl-ethanol] | 1,887 | 20 µM | 10.6 nM | 22.5 ×10⁻⁶ cm/s | 16.5 ×10⁻⁶ cm/s | good (Papp-values>1e-5 cm/s are assessed as good permeable) | 5.8% | 118.8% | 10% spheric | 145 nM | 70.7 µM | 6,670 |  |  |  |  |  |  |  | 
2 | NCc1c(-c2ccc(Cl)cc2Cl)ncn1Cc1ccccc1F [Example 112b, C-[5-(2,4-dichloro-phenyl)-3-(2-fluoro-benzyl)-3H-imidazol-4-yl]-methylamine] | 3,514 | 36.9 µM | 10.5 nM | 44.8 ×10⁻⁶ cm/s | 42.1 ×10⁻⁶ cm/s | good, passive | 3.0% | 111.4% |  | 195 nM |  | 9,714 | 3.7 µM |  |  |  |  |  |  | 
3 | CN(C)CCCN1c2ccccc2CCc2ccccc21 [Imipramine, Imipramine Hydrochloride, reference compound] |  |  |  |  |  |  |  |  |  |  |  |  |  | spent more time immobile | clearly reduced | lower amount of time | reduction | significantly reduced | significantly reduced | significantly reduced
